Assay results taken from ChEMBL document CHEMBL1201862, “PubChem BioAssay data set” (2004).
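48-hour exposure; five concentrations; linearly interpolated endpoints. GI50: concentration for 50% inhibition of growth.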 The source made the active and inactive calls. Rule as the data show it: active = GI50 up to about 1.1 µM and inactive = higher.

Columns and labels:
Assay in all cases: DTP human tumour cell line panel, 48 h
SF-295 = test system: SF-295
UACC-257 = test system: UACC-257
UO-31 = test system: UO-31
UACC-62 = test system: UACC-62
ACHN = test system: ACHN
TK-10 = test system: TK-10
HOP-62 = test system: HOP-62
DMS-114 = test system: DMS-114
SK-MEL-5 = test system: SK-MEL-5
OVCAR-8 = test system: OVCAR-8
Malme-3M = test system: Malme-3M
SN12C = test system: SN12C
RXF 393 = test system: RXF 393
786-0 = test system: 786-0
NCI-H460 = test system: NCI-H460
SF-539 = test system: SF-539
COLO 205 = test system: COLO 205
DLD-1 = test system: DLD-1
HCT-116 = test system: HCT-116
NCI-H226 = test system: NCI-H226
SW-620 = test system: SW-620
KM12 = test system: KM12
EKVX = test system: EKVX
NCI-H23 = test system: NCI-H23
SNB-75 = test system: SNB-75
M14 = test system: M14
LXFL 529 = test system: LXFL 529
XF498 = test system: XF498
SK-MEL-2 = test system: SK-MEL-2
NCI-H522 = test system: NCI-H522
SK-MEL-28 = test system: SK-MEL-28
OVCAR-3 = test system: OVCAR-3
KM-20L2 = test system: KM-20L2
A549 = test system: A549
HT-29 = test system: HT-29
SNB-19 = test system: SNB-19
HCT-15 = test system: HCT-15
HCC 2998 = test system: HCC 2998
LOX IMVI = test system: LOX IMVI
A498 = test system: A498
SK-OV-3 = test system: SK-OV-3
HOP-18 = test system: HOP-18
U-251 = test system: U-251
SNB-78 = test system: SNB-78
SF-268 = test system: SF-268
HOP-92 = test system: HOP-92
M19-MEL = test system: M19-MEL
CCRF-CEM = test system: CCRF-CEM
OVCAR-4 = test system: OVCAR-4
OVCAR-5 = test system: OVCAR-5
K562 = test system: K562
MOLT-4 = test system: MOLT-4
IGROV-1 = test system: IGROV-1
HL-60 = test system: HL-60
RPMI-8226 = test system: RPMI-8226
SR = test system: SR
CAKI-1 = test system: CAKI-1
DMS-273 = test system: DMS-273
T47D = test system: T47D
Hs-578T = test system: Hs-578T
MDA-N = test system: MDA-N
MDA-MB-435 = test system: MDA-MB-435
DU-145 = test system: DU-145
MCF7 = test system: MCF7
MDA-MB-231 = test system: MDA-MB-231
NCI/ADR-RES = test system: NCI/ADR-RES
PC-3 = test system: PC-3

O=C1OC2CCCC[C@@H]2C2C[C@]34CCCCC3[C@@H](C(=O)O4)C12 (some centres undefined)
GI50 (SF-295): > 100 µM (inactive)
GI50 (UACC-257): > 100 µM (inactive)
GI50 (UO-31): > 100 µM (inactive)
GI50 (UACC-62): > 100 µM (inactive)
GI50 (ACHN): > 100 µM (inactive)
GI50 (TK-10): > 100 µM (inactive)
GI50 (HOP-62): > 100 µM (inactive)
GI50 (DMS-114): > 100 µM (inactive)
GI50 (SK-MEL-5): > 100 µM (inactive)
GI50 (OVCAR-8): > 100 µM (inactive)
GI50 (Malme-3M): > 100 µM (inactive)
GI50 (SN12C): > 100 µM (inactive)
GI50 (RXF 393): > 100 µM (inactive)
GI50 (786-0): > 100 µM (inactive)
GI50 (NCI-H460): > 100 µM (inactive)
GI50 (SF-539): > 100 µM (inactive)
GI50 (COLO 205): > 100 µM (inactive)
GI50 (DLD-1): > 100 µM (inactive)
GI50 (HCT-116): > 100 µM (inactive)
GI50 (NCI-H226): > 100 µM (inactive)
GI50 (SW-620): > 100 µM (inactive)
GI50 (KM12): > 100 µM (inactive)
GI50 (EKVX): > 100 µM (inactive)
GI50 (NCI-H23): > 100 µM (inactive)
GI50 (SNB-75): > 100 µM (inactive)
GI50 (M14): > 100 µM (inactive)
GI50 (LXFL 529): > 100 µM (inactive)
GI50 (XF498): > 100 µM (inactive)
GI50 (SK-MEL-2): > 100 µM (inactive)
GI50 (NCI-H522): > 100 µM (inactive)
GI50 (SK-MEL-28): > 100 µM (inactive)
GI50 (OVCAR-3): > 100 µM (inactive)
GI50 (KM-20L2): > 100 µM (inactive)
GI50 (A549): > 100 µM (inactive)
GI50 (HT-29): > 100 µM (inactive)
GI50 (SNB-19): > 100 µM (inactive)
GI50 (HCT-15): > 100 µM
GI50 (HCC 2998): > 100 µM (inactive)
GI50 (LOX IMVI): > 100 µM (inactive)
GI50 (A498): > 100 µM (inactive)
GI50 (SK-OV-3): > 100 µM (inactive)
GI50 (HOP-18): > 100 µM (inactive)
GI50 (U-251): > 100 µM (inactive)
GI50 (SNB-78): > 100 µM (inactive)
GI50 (SF-268): > 100 µM (inactive)
GI50 (HOP-92): > 100 µM (inactive)
GI50 (M19-MEL): > 100 µM (inactive)
GI50 (CCRF-CEM): > 100 µM (inactive)
GI50 (OVCAR-4): > 100 µM (inactive)
GI50 (OVCAR-5): > 100 µM (inactive)
GI50 (K562): > 100 µM (inactive)
GI50 (MOLT-4): > 100 µM (inactive)

CC(OC1CC(=O)CC2C(=O)C=CC(=O)C12)c1ccccc1 (centres undefined)
GI50 (SF-295): 16.6 µM (inactive)
GI50 (UACC-257): 19.1 µM (inactive)
GI50 (UO-31): 16 µM (inactive)
GI50 (UACC-62): 16.2 µM (inactive)
GI50 (IGROV-1): 17.4 µM (inactive)
GI50 (ACHN): 11.2 µM (inactive)
GI50 (HL-60): 3.25 µM (inactive)
GI50 (TK-10): 17.8 µM (inactive)
GI50 (HOP-62): 24 µM (inactive)
GI50 (DMS-114): 8.05 µM (inactive)
GI50 (SK-MEL-5): 18.8 µM (inactive)
GI50 (OVCAR-8): 15.3 µM (inactive)
GI50 (Malme-3M): 20.4 µM (inactive)
GI50 (SN12C): 19 µM (inactive)
GI50 (RXF 393): 18.9 µM (inactive)
GI50 (786-0): 13.9 µM (inactive)
GI50 (RPMI-8226): 17.3 µM (inactive)
GI50 (NCI-H460): > 42.9 µM (inactive)
GI50 (SF-539): 19.8 µM (inactive)
GI50 (COLO 205): 16.9 µM (inactive)
GI50 (DLD-1): 12.9 µM (inactive)
GI50 (HCT-116): 9.75 µM (inactive)
GI50 (NCI-H226): 20 µM (inactive)
GI50 (SR): 19.1 µM (inactive)
GI50 (SW-620): 13.8 µM (inactive)
GI50 (KM12): 16.6 µM (inactive)
GI50 (EKVX): 16.2 µM (inactive)
GI50 (NCI-H23): 18.1 µM (inactive)
GI50 (SNB-75): 25.6 µM (inactive)
GI50 (M14): 18.7 µM (inactive)
GI50 (LXFL 529): 7.33 µM (inactive)
GI50 (XF498): 15.8 µM (inactive)
GI50 (SK-MEL-2): 19.7 µM (inactive)
GI50 (NCI-H522): 1.53 µM (inactive)
GI50 (SK-MEL-28): 20.8 µM (inactive)
GI50 (CAKI-1): 16.9 µM (inactive)
GI50 (OVCAR-3): 19.2 µM (inactive)
GI50 (KM-20L2): 17.3 µM (inactive)
GI50 (A549): 19.1 µM (inactive)
GI50 (HT-29): 17.7 µM (inactive)
GI50 (SNB-19): 28.4 µM (inactive)
GI50 (HCT-15): 17.1 µM
GI50 (HCC 2998): 16.1 µM (inactive)
GI50 (LOX IMVI): 17.2 µM (inactive)
GI50 (A498): 18.1 µM (inactive)
GI50 (SK-OV-3): > 42.2 µM (inactive)
GI50 (HOP-18): 18.2 µM (inactive)
GI50 (U-251): 14.5 µM (inactive)
GI50 (SNB-78): 19.5 µM (inactive)
GI50 (SF-268): 21.2 µM (inactive)
GI50 (DMS-273): 19.1 µM (inactive)
GI50 (HOP-92): 1.42 µM (inactive)
GI50 (M19-MEL): 16.1 µM (inactive)
GI50 (CCRF-CEM): 2.67 µM (inactive)
GI50 (OVCAR-4): 18.3 µM (inactive)
GI50 (OVCAR-5): 17.6 µM (inactive)
GI50 (K562): 3.31 µM (inactive)
GI50 (MOLT-4): 4.97 µM (inactive)

O=C1C(Cl)=C(N2CCN(CCOCCO)CC2)C(=O)c2ccccc21
GI50 (SF-295): 18 µM (inactive)
GI50 (T47D): 1.85 µM (inactive)
GI50 (UACC-257): 5.12 µM (inactive)
GI50 (UO-31): 7.73 µM (inactive)
GI50 (UACC-62): 6.32 µM (inactive)
GI50 (IGROV-1): 15.3 µM (inactive)
GI50 (ACHN): 7.36 µM (inactive)
GI50 (HL-60): 1.67 µM (inactive)
GI50 (TK-10): 20.2 µM (inactive)
GI50 (Hs-578T): 19.1 µM (inactive)
GI50 (SK-MEL-5): 14.7 µM (inactive)
GI50 (OVCAR-8): 14.9 µM (inactive)
GI50 (Malme-3M): 6.07 µM (inactive)
GI50 (SN12C): 15.2 µM (inactive)
GI50 (RXF 393): 3.13 µM (inactive)
GI50 (786-0): 11.7 µM (inactive)
GI50 (RPMI-8226): 3.45 µM (inactive)
GI50 (NCI-H460): 17.9 µM (inactive)
GI50 (SF-539): 18.9 µM (inactive)
GI50 (COLO 205): 15.2 µM (inactive)
GI50 (HCT-116): 3.97 µM (inactive)
GI50 (NCI-H226): 16.6 µM (inactive)
GI50 (MDA-N): 2.18 µM (inactive)
GI50 (SR): 2.72 µM (inactive)
GI50 (MDA-MB-435): 3.41 µM (inactive)
GI50 (SW-620): 1.72 µM (inactive)
GI50 (DU-145): 19.2 µM (inactive)
GI50 (KM12): 16.3 µM (inactive)
GI50 (EKVX): 18.4 µM (inactive)
GI50 (NCI-H23): 13.6 µM (inactive)
GI50 (SNB-75): 14.2 µM (inactive)
GI50 (MCF7): 3.56 µM (inactive)
GI50 (M14): 9.29 µM (inactive)
GI50 (LXFL 529): 1.79 µM (inactive)
GI50 (XF498): 2.55 µM (inactive)
GI50 (MDA-MB-231): 4.43 µM (inactive)
GI50 (SK-MEL-2): 8.89 µM (inactive)
GI50 (NCI-H522): 1.77 µM (inactive)
GI50 (SK-MEL-28): 17.3 µM (inactive)
GI50 (CAKI-1): 15.7 µM (inactive)
GI50 (OVCAR-3): 2.85 µM (inactive)
GI50 (KM-20L2): 18 µM (inactive)
GI50 (NCI/ADR-RES): 12.2 µM (inactive)
GI50 (A549): 18.7 µM (inactive)
GI50 (PC-3): 18 µM (inactive)
GI50 (HT-29): 16 µM (inactive)
GI50 (SNB-19): 23.8 µM (inactive)
GI50 (HCT-15): 11.9 µM
GI50 (HCC 2998): 18.2 µM (inactive)
GI50 (LOX IMVI): 6.4 µM (inactive)
GI50 (A498): 18.5 µM (inactive)
GI50 (SK-OV-3): 15.3 µM (inactive)
GI50 (HOP-18): 16.3 µM (inactive)
GI50 (U-251): 17.3 µM (inactive)
GI50 (SNB-78): 15.3 µM (inactive)
GI50 (SF-268): 16.4 µM (inactive)
GI50 (DMS-273): 16.9 µM (inactive)
GI50 (HOP-92): 1.49 µM (inactive)
GI50 (M19-MEL): 3.82 µM (inactive)
GI50 (CCRF-CEM): 2.33 µM (inactive)
GI50 (OVCAR-4): 2.19 µM (inactive)
GI50 (OVCAR-5): 22.4 µM (inactive)
GI50 (K562): 2.2 µM (inactive)
GI50 (MOLT-4): 2.05 µM (inactive)
